In the NIST ThermoML archive (doi:10.1021/je500153g):

Test: xn = mol fraction of the nth substance listed
Settings: 101 kPa, Liquid; for viscosity: Concentric cylinders viscometry; for mass density: Vibrating tube method

O=S1(=O)CCCC1 [sulfolane] + CC(C)O
Settings | mass density, 303.15 K [kg/m3] | mass density, 313.15 K [kg/m3] | mass density, 323.15 K [kg/m3] | mass density, 333.15 K [kg/m3] | mass density, 343.15 K [kg/m3] | viscosity, 303.15 K [mPa·s] | viscosity, 313.15 K [mPa·s] | viscosity, 323.15 K [mPa·s] | viscosity, 333.15 K [mPa·s] | viscosity, 343.15 K [mPa·s]
x1 = 0.075 | 823.6 | 814.6 | 805.3 | 795.5 | 785.2 | 1.62 | 1.27 | 1.01 | 0.81 | 0.66
x1 = 0.164 | 875.9 | 866.9 | 857.5 | 847.9 | 837.9 | 1.69 | 1.34 | 1.08 | 0.89 | 0.74
x1 = 0.25 | 924 | 914.8 | 905.4 | 896 | 886 | 1.85 | 1.48 | 1.2 | 1 | 0.84
x1 = 0.353 | 978.7 | 969.6 | 960.4 | 950.7 | 941.1 | 2.14 | 1.71 | 1.41 | 1.18 | 0.99
x1 = 0.437 | 1021.3 | 1012.1 | 1002.9 | 993.8 | 984.3 | 2.43 | 1.96 | 1.62 | 1.36 | 1.14
x1 = 0.536 | 1069.3 | 1060.2 | 1050.9 | 1041.6 | 1032.1 | 2.91 | 2.35 | 1.95 | 1.64 | 1.4
x1 = 0.656 | 1124.3 | 1115.3 | 1106.2 | 1097 | 1087.7 | 3.75 | 3.03 | 2.5 | 2.11 | 1.8
x1 = 0.768 | 1172.1 | 1163.1 | 1154.1 | 1145.1 | 1135.9 | 4.97 | 3.99 | 3.27 | 2.73 | 2.32
x1 = 0.88 | 1219.3 | 1210.4 | 1201.6 | 1192.6 | 1183.7 | 6.92 | 5.48 | 4.45 | 3.68 | 3.1
x1 = 1 | 1262.9 | 1254.1 | 1245.2 | 1236.6 | 1228.1 | 10.4 | 8.07 | 6.45 | 5.22 | 4.32

O=S1(=O)CCCC1 [sulfolane] + CCC(C)O
Settings | mass density, 303.15 K [kg/m3] | mass density, 313.15 K [kg/m3] | mass density, 323.15 K [kg/m3] | mass density, 333.15 K [kg/m3] | mass density, 343.15 K [kg/m3] | viscosity, 303.15 K [mPa·s] | viscosity, 313.15 K [mPa·s] | viscosity, 323.15 K [mPa·s] | viscosity, 333.15 K [mPa·s] | viscosity, 343.15 K [mPa·s]
x1 = 0.099 | 846.6 | 837.8 | 828.8 | 819.3 | 809.4 | 2.16 | 1.62 | 1.26 | 1 | 0.8
x1 = 0.198 | 894.1 | 885.2 | 876 | 866.7 | 857 | 2.17 | 1.67 | 1.33 | 1.08 | 0.89
x1 = 0.298 | 941.7 | 932.9 | 923.8 | 914.6 | 905 | 2.34 | 1.83 | 1.49 | 1.21 | 1.01
x1 = 0.38 | 980.6 | 971.7 | 962.6 | 953.3 | 943.9 | 2.56 | 2.01 | 1.63 | 1.35 | 1.14
x1 = 0.499 | 1036.4 | 1027.5 | 1018.4 | 1009.3 | 1000 | 2.98 | 2.37 | 1.93 | 1.61 | 1.37
x1 = 0.593 | 1079.6 | 1070.7 | 1061.8 | 1052.7 | 1043.5 | 3.46 | 2.77 | 2.27 | 1.89 | 1.62
x1 = 0.691 | 1125.1 | 1116.2 | 1107.2 | 1098.2 | 1089.2 | 4.19 | 3.36 | 2.76 | 2.31 | 1.97
x1 = 0.799 | 1173.9 | 1165.1 | 1156.2 | 1147.4 | 1138.5 | 5.41 | 4.32 | 3.53 | 2.94 | 2.49
x1 = 0.9 | 1219 | 1210.1 | 1201.4 | 1192.5 | 1183.7 | 7.23 | 5.72 | 4.63 | 3.82 | 3.21
x1 = 1 | 1262.9 | 1254.1 | 1245.2 | 1236.6 | 1228.1 | 10.4 | 8.07 | 6.45 | 5.22 | 4.32

O=S1(=O)CCCC1 [sulfolane] + OCCOCCO
Settings | mass density, 303.15 K [kg/m3] | mass density, 313.15 K [kg/m3] | mass density, 323.15 K [kg/m3] | mass density, 333.15 K [kg/m3] | mass density, 343.15 K [kg/m3] | viscosity, 303.15 K [mPa·s] | viscosity, 313.15 K [mPa·s] | viscosity, 323.15 K [mPa·s] | viscosity, 333.15 K [mPa·s] | viscosity, 343.15 K [mPa·s]
x1 = 0.097 | 1125 | 1117.6 | 1110.2 | 1102.7 | 1094.9 | 19.1 | 12.9 | 9.13 | 6.74 | 5.15
x1 = 0.198 | 1140 | 1132.5 | 1124.8 | 1117 | 1109.1 | 16.3 | 11.2 | 8.04 | 6.01 | 4.65
x1 = 0.319 | 1158.2 | 1150.3 | 1142.3 | 1134.2 | 1126.1 | 13.8 | 9.62 | 7.03 | 5.35 | 4.19
x1 = 0.414 | 1172.2 | 1164.2 | 1156.1 | 1147.8 | 1139.6 | 12.2 | 8.7 | 6.46 | 4.97 | 3.94
x1 = 0.499 | 1185.2 | 1176.9 | 1168.6 | 1160.3 | 1151.9 | 11.2 | 8.07 | 6.07 | 4.72 | 3.78
x1 = 0.614 | 1202.9 | 1194.5 | 1186 | 1177.5 | 1169 | 10.2 | 7.49 | 5.72 | 4.5 | 3.64
x1 = 0.698 | 1215.6 | 1207.1 | 1198.5 | 1190 | 1181.3 | 9.72 | 7.25 | 5.61 | 4.47 | 3.64
x1 = 0.789 | 1229.7 | 1221.1 | 1212.5 | 1203.8 | 1195.1 | 9.35 | 7.08 | 5.54 | 4.46 | 3.66
x1 = 0.887 | 1245 | 1236.3 | 1227.5 | 1218.8 | 1210.1 | 9.39 | 7.23 | 5.72 | 4.64 | 3.84
x1 = 1 | 1262.9 | 1254.1 | 1245.2 | 1236.6 | 1228.1 | 10.4 | 8.07 | 6.45 | 5.22 | 4.32
